Key:
[1] = biological target: T1, Nuclear receptor subfamily 1 group I member 2 (Homo sapiens, UniProt O75469); experiment: Agonist activity at PXR (unknown origin) by Gal4-Luc reporter gene assay)
T1 sequence (O75469 whole entry): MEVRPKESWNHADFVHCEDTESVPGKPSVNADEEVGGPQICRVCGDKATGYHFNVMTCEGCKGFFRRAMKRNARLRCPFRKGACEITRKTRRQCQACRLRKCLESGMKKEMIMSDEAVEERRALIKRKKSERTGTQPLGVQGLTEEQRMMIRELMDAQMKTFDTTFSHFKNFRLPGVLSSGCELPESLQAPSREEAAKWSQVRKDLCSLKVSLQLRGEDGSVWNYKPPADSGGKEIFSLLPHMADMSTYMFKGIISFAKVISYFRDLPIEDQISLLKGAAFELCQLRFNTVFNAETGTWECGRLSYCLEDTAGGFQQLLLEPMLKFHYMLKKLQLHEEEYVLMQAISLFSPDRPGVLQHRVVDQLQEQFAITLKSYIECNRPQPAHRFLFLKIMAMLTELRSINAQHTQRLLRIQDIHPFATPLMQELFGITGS

[2] = biological target: T2, Oxysterols receptor LXR-alpha (Homo sapiens, UniProt Q13133); experiment: Activity at LXRalpha (unknown origin)
T2 sequence (Q13133 whole entry): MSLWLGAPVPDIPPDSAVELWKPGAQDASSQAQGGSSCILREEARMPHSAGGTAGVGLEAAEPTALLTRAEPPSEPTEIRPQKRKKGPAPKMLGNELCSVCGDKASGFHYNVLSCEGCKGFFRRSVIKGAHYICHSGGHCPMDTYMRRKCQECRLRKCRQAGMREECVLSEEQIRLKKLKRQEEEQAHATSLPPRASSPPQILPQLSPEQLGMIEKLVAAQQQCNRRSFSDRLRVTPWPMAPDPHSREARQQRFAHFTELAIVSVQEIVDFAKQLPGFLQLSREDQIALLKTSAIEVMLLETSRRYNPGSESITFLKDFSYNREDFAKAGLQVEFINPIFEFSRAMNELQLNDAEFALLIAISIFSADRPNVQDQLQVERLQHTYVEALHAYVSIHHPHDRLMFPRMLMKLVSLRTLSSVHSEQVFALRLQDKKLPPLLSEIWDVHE

[3] = biological target: Cytochrome P450 3A4 (Homo sapiens, UniProt P08684); experiment: Inhibition of recombinant CYP3A4 (unknown origin) using BFC substrate; assay type: ADME
Sequence of Cytochrome P450 3A4 (P08684 whole entry): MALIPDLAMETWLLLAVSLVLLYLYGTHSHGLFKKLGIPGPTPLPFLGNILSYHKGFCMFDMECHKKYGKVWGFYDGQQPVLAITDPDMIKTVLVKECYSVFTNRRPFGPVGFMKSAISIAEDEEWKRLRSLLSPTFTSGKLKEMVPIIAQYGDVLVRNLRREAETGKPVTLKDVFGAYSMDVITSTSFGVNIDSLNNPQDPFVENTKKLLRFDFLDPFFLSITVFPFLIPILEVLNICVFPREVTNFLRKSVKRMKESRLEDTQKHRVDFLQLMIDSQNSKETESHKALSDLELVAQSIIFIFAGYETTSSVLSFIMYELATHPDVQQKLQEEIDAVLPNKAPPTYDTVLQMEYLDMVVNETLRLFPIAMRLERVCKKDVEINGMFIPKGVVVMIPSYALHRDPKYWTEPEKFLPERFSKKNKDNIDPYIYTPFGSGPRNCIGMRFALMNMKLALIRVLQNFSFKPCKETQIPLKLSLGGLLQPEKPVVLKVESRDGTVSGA

[4] = Oral bioavailability in rat at 4 mg/kg; assay type: ADME, organism-based; details: in vivo
[5] = Total AUC in dog at 1 mg/kg, po; assay type: ADME, organism-based, Canis lupus familiaris; set-up: dose 1 mg/kg, route oral, time AUCmax; details: in vivo
[6] = Unbound fraction in rat serum; assay type: ADME, cell-free
[7] = test system: Mus musculus; experiment: Suppression of ear thickness in mouse model of IL-23 induced acanthosis model of psoriasis at 30 mg/kg, po BID for 10 days measured every other day relative to control; assay type: functional; details: 240 h
[8] = Unbound fraction in human serum; assay type: ADME, cell-free
[9] = test system: Mus musculus; experiment: Suppression of ear thickness in mouse model of IL-23 induced acanthosis model of psoriasis at 30 mg/kg, po BID for 10 days measured every other day relative to anti-IL-23 positive control; assay type: functional
[10] = Oral bioavailability in dog at 1 mg/kg; assay type: ADME, organism-based, Canis lupus familiaris; details: in vivo
[11] = Half life in human liver microsomes; assay type: ADME, Microsome
[12] = biological target: Cytochrome P450 2C9 (Homo sapiens, UniProt P11712); experiment: Inhibition of recombinant CYP2C9 (unknown origin); assay type: ADME
Sequence of Cytochrome P450 2C9 (P11712 whole entry): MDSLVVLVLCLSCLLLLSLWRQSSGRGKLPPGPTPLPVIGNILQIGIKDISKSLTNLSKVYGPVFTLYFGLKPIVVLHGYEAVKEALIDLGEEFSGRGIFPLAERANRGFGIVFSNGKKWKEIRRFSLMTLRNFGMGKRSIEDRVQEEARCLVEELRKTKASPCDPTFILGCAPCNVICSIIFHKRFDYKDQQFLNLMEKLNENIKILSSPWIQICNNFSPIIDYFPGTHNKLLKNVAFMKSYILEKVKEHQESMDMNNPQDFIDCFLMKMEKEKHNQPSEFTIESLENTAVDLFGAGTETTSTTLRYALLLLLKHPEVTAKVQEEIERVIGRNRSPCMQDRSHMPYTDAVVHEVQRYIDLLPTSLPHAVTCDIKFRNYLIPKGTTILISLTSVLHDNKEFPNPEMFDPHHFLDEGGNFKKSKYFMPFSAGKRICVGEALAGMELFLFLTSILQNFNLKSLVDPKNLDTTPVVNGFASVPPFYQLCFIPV

[13] = Permeability across apical to basolateral side in human Caco2 cells; assay type: ADME, cell-based; details: Caco-2, read-out: permeability
[14] = test system: Mus musculus; experiment: Suppression of IL-17F RNA expression in skin region of mouse model of IL-23 induced acanthosis model of psoriasis at 3 to 30 mg/kg, po BID for 10 days measured every other day; assay type: functional
[15] = Cmax in rat at 4 mg/kg, po; assay type: ADME, organism-based; set-up: dose 4 mg/kg, route oral; details: in vivo
[16] = test system: Mus musculus; experiment: Suppression of ear thickness in mouse model of IL-23 induced acanthosis model of psoriasis at 10 mg/kg, po BID for 10 days measured every other day relative to control; assay type: functional; details: 240 h
[17] = Cmax in dog at 1 mg/kg, po; assay type: ADME, organism-based, Canis lupus familiaris; set-up: dose 1 mg/kg, route oral; details: in vivo
[18] = test system: Mus musculus; experiment: Suppression of IL-17F RNA expression in skin region of mouse model of IL-23 induced acanthosis model of psoriasis at 10 mg/kg, po BID for 10 days measured every other day relative to control; assay type: functional; details: 240 h
[19] = Half life in mouse at 2 mg/kg, iv; assay type: ADME, organism-based; details: in vivo
[20] = biological target: T3, Nuclear receptor ROR-alpha (Homo sapiens, UniProt P35398); experiment: Agonist activity at RORalpha (unknown origin) by Gal4-Luc reporter gene assay
T3 sequence (P35398 whole entry): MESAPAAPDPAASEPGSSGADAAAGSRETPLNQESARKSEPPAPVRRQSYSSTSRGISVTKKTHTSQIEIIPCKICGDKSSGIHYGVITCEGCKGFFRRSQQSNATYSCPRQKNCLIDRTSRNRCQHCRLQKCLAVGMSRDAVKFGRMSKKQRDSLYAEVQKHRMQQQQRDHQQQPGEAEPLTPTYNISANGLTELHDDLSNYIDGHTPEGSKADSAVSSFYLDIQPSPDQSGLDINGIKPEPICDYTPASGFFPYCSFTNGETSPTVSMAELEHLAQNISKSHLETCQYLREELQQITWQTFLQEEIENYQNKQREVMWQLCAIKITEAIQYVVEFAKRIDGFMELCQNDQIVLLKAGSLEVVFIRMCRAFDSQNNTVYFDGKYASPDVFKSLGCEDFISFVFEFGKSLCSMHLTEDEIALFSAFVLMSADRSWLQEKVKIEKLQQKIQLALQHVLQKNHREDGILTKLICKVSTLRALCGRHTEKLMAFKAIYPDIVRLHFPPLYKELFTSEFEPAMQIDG

[21] = biological target: T2, Oxysterols receptor LXR-alpha; experiment: Agonist activity at LXRalpha (unknown origin) by Gal4-Luc reporter gene assay
[22] = Half life in rat at 2 mg/kg, iv; assay type: ADME, organism-based; details: in vivo
[23] = Total AUC in mouse at 4 mg/kg, po; assay type: ADME, organism-based; set-up: dose 4 mg/kg, route oral, time AUCmax; details: in vivo
[24] = Half life in rat liver microsomes; assay type: ADME, Microsome

For `O=C(N1CC[C@@]2(S(=O)(=O)c3ccc(F)cc3)c3ccc(C(F)(C(F)(F)F)C(F)(F)F)cc3CC[C@@H]12)C1(O)CCS(=O)(=O)CC1`, which EC50 [1] is on record?
The EC50 was greater than 50 µM.

What about the IC50 [2] of the same compound?
Its IC50 is greater than 10 µM.

And the IC50 [3]?
The IC50 was greater than 20 µM.

And the bioavailability [4]?
Its bioavailability is 50%.

And the AUC [5]?
Its AUC is 78 µM·h.

What about the fraction unbound [6] of the same compound?
Its fraction unbound is 0.011.

What about the inhibition in vivo at 30 mg/kg [7] of the same compound?
The inhibition in vivo at 30 mg/kg was 57%.

And the fraction unbound [8]?
Its fraction unbound is 0.011.

And the Efficacy [9]?
Its Efficacy is 98%.

And the bioavailability [10]?
Its bioavailability is 100%.

What about the half-life [11] of the same compound?
The half-life was greater than 2 h.

And the IC50 [12]?
Its IC50 is 10 µM.

And the Papp A→B [13]?
The Papp A→B was 13 ×10⁻⁶ cm/s.

And the Activity [14]?
Its Activity is “Dose-dependent effect”.

And the ED50 ([14]; 240 h)?
Its ED50 is 3 mg/kg.

And the Cmax [15]?
The Cmax was 1100 nM.

And the inhibition in vivo at 10 mg/kg [16]?
The inhibition in vivo at 10 mg/kg was 51%.

What about the Cmax [17] of the same compound?
Its Cmax is 700 nM.

And the inhibition in vivo at 10 mg/kg [18]?
The inhibition in vivo at 10 mg/kg was 69%.

What about the half-life [19] of the same compound?
The half-life was 15 h.

What about the EC50 [20] of the same compound?
Its EC50 is greater than 10 µM.

And the EC50 [21]?
Its EC50 is greater than 7.5 µM.

What about the half-life [22] of the same compound?
The half-life was 7 h.

What about the AUC [23] of the same compound?
The AUC was 58.2 µM·h.

What about the half-life [24] of the same compound?
The half-life was greater than 2 h.
